pIC50: −log10 of the molar value.
Tested on: Wnt pathway (TCF-dependent transcription in HEK293 luciferase reporter cell line with ER-DSH construct)
Experiment: Cellular assay for Wnt pathway activity (luciferase reporter)
Format: cell-based
Details: Homo sapiens; Wnt pathway inhibition, HEK293 luciferase reporter cells (ER-DSH, TCF promoter), 24 hours incubation, estrogen-induced
How it was run: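 Compounds (30 μM down to 1 nM) were incubated 24 h on cells induced for TCF-dependent transcription with estrogen. Luciferase activity was read by luminescence, normalized to untreated vehicle control, and fitted for IC50.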

Compared with `CC(=O)N(C)CCN(C)c1cncc(Oc2ccc(C3CCCCC3)cc2)n1` [Compound 99, N-(2-{[6-(4-Cyclohexyl-phenoxy)-pyrazin-2-yl]-methyl-amino}-ethyl)-N-methyl-acetamide], `CC(=O)N(C)CCN(C)c1cncc(Oc2ccc(Br)cc2)n1` [Compound 37, N-(2-{[6-(4-Bromo-phenoxy)-pyrazin-2-yl]-methyl-amino}-ethyl)-N-methyl-acetamide] is higher in pIC50: 5.00 to 6.00 for the first, greater than 6.70 for the second. The second is the more potent here.

First: CC(=O)N(C)CCN(C)c1cncc(Oc2ccc(Br)c(C)c2)n1 [Compound 111, N-(2-{[6-(4-Bromo-3-methyl-phenoxy)-pyrazin-2-yl]-methyl-amino}-ethyl)-N-methyl-acetamide]
Second: CC(=O)N(C)CCN(C)c1cncc(Oc2ccc3ccncc3c2)n1 [Compound 112, N-(2-{[6-(Isoquinolin-7-yloxy)-pyrazin-2-yl]-methyl-amino}-ethyl)-N-methyl-acetamide]
The pIC50 of the first is lower: 6.00 to 6.70 for the first, greater than 6.70 for the second.

First: CC(=O)N(C)CCN(C)c1cncc(Oc2ccc(-c3cncc4[nH]ccc34)cc2)n1 [Compound 237, N-Methyl-N-[2-(methyl-{6-[4-(1H-pyrrolo[2,3-c]pyridin-4-yl)-phenoxy]-pyrazin-2-yl}-amino)-ethyl]-acetamide]
Second: CC(=O)N(C)CCN(C)c1cncc(Oc2ccc(-c3cccnc3N)cc2)n1 [Compound 177, N-[2-({6-[4-(2-Amino-pyridin-3-yl)-phenoxy]-pyrazin-2-yl}-methyl-amino)-ethyl]-N-methyl-acetamide]
The pIC50 of the first is lower: 6.00 to 6.70 for the first, greater than 6.70 for the second. The second is the more potent here.

First: CC(=O)N(C)CCN(C)c1cncc(Oc2ccc(-c3ncccc3N3CCOCC3)cc2)n1 [Compound 164, N-Methyl-N-[2-(methyl-{6-[4-(3-morpholin-4-yl-pyridin-2-yl)-phenoxy]-pyrazin-2-yl}-amino)-ethyl]-acetamide]
Second: CC(=O)N(C)CCN(C)c1cncc(Oc2ccc(-c3ccnnc3)cc2)n1 [Compound 261, N-Methyl-N-(2-{methyl-[6-(4-pyridazin-4-yl-phenoxy)-pyrazin-2-yl]-amino}-ethyl)-acetamide]
The pIC50 of the first is lower: 5.00 to 6.00 for the first, greater than 6.70 for the second. The second is the more potent here.

Compared with `CC(=O)N(C)CCN(C)c1cncc(OC2Cc3ccccc3C2)n1` [Compound 223, N-(2-{[6-(Indan-2-yloxy)-pyrazin-2-yl]-methyl-amino}-ethyl)-N-methyl-acetamide], `CC(=O)N(C)CCN(C)c1cncc(OC2CCCCC2)n1` [Compound 48, N-{2-[(6-Cyclo-hexyloxy-pyrazin-2-yl)-methyl-amino]-ethyl}-N-methyl-acetamide] is lower in pIC50: 6.00 to 6.70 for the first, 5.00 to 6.00 for the second.

Compared with `CC(=O)N(C)CCSc1cncc(Oc2ccc(F)cc2)n1` [Compound 136, N-{2-[6-(4-Fluoro-phenoxy)-pyrazin-2-ylsulfanyl]-ethyl}-N-methyl-acetamide], `CC(=O)N(C)CCOc1cncc(Oc2ccc(F)cc2)n1` [Compound 188, N-{2-[6-(4-Fluoro-phenoxy)-pyrazin-2-yloxy]-ethyl}-N-methyl-acetamide] is lower in pIC50: greater than 6.70 for the first, 5.00 to 6.00 for the second.

First: CCOC(=O)Cc1ccc(Oc2cncc(N(C)CCN(C)C(C)=O)n2)cc1 [Compound 137, [4-(6-{[2-(Acetyl-methyl-amino)-ethyl]-methyl-amino}-pyrazin-2-yloxy)-phenyl]-acetic acid ethyl ester]
Second: CCOC(=O)C(C)c1ccc(Oc2cncc(N(C)CCN(C)C(C)=O)n2)cc1 (centres unmarked) [Compound 138, 2-[4-(6-{[2-(Acetyl-methyl-amino)-ethyl]-methyl-amino}-pyrazin-2-yloxy)-phenyl]-propionic acid ethyl ester]
The pIC50 of the first is higher: greater than 6.70 for the first, 6.00 to 6.70 for the second.

`COc1ccc(Oc2cncc(N(C)CCN(C)S(=O)(=O)c3ccc(F)cc3F)n2)cc1` [Compound 60, 2,4-Difluoro-N-(2-{[6-(4-methoxy-phenoxy)-pyrazin-2-yl]-methyl-amino}-ethyl)-N-methyl-benzene-sulfonamide] and `CCNC(=O)N(C)CCN(C)c1cncc(Oc2ccc(OC)cc2)n1` [Compound 69, 3-Ethyl-1-(2-{[6-(4-methoxy-phenoxy)-pyrazin-2-yl]-methyl-amino}-ethyl)-1-methyl-urea] fall in the same range of pIC50: 5.00 to 6.00 for the first, 5.00 to 6.00 for the second.

`CC(=O)N(C)CCN(C)c1cncc(Oc2ccc(-c3ccnc4ccccc34)cc2)n1` [Compound 195, N-Methyl-N-(2-{methyl-[6-(4-quinolin-4-yl-phenoxy)-pyrazin-2-yl]-amino}-ethyl)-acetamide] and `CC(=O)N(C)CCN(C)c1cncc(Oc2ccc(-c3ccc(C)cn3)cc2)n1` [Compound 93, N-Methyl-N-[2-(methyl-{6-[4-(5-methyl-pyridin-2-yl)-phenoxy]-pyrazin-2-yl}-amino)-ethyl]-acetamide] cannot be ordered by pIC50: greater than 6.70 for the first, greater than 6.70 for the second.

First: CC(=O)N(C)CCN(C)c1cncc(Oc2ccc(-c3ccc([N+](=O)[O-])cn3)cc2)n1 [Compound 198, N-Methyl-N-[2-(methyl-{6-[4-(5-nitro-pyridin-2-yl)-phenoxy]-pyrazin-2-yl}-amino)-ethyl]-acetamide]
Second: CC(=O)N(C)CCN(C)c1cncc(Oc2ccc(-c3ccc(=O)[nH]n3)cc2)n1 [Compound 151, N-Methyl-N-[2-(methyl-{6-[4-(6-oxo-1,6-dihydro-pyridazin-3-yl)-phenoxy]-pyrazin-2-yl}-amino)-ethyl]-acetamide]
The pIC50 of the first is higher: greater than 6.70 for the first, 6.00 to 6.70 for the second.

`CC(=O)N(C)CCN(C)c1cncc(Oc2ccc(CCC#N)cc2)n1` [Compound 232, N-[2-({6-[4-(2-Cyano-ethyl)-phenoxy]-pyrazin-2-yl}-methyl-amino)-ethyl]-N-methyl-acetamide] and `CC(=O)N(C)CCN(C)c1cncc(Oc2ccc(/C=C/c3ccccn3)cc2)n1` [Compound 145, N-Methyl-N-[2-(methyl-{6-[4-((E)-2-pyridin-2-yl-vinyl)-phenoxy]-pyrazin-2-yl}-amino)-ethyl]-acetamide] cannot be ordered by pIC50: greater than 6.70 for the first, greater than 6.70 for the second.

`Nc1cnc(-c2ccc(Oc3cncc(CCCN4CCCCC4=O)n3)cc2)cn1` [Compound 263, 1-(3-{6-[4-(5-Amino-pyrazin-2-yl)-phenoxy]-pyrazin-2-yl}-propyl)-piperidin-2-one] and `O=C1CCCCN1CCNc1cncc(Oc2ccc(-c3ccc(CO)nc3)cc2)n1` [Compound 292, 1-(2-{6-[4-(6-Hydroxy-methyl-pyridin-3-yl)-phenoxy]-pyrazin-2-ylamino}-ethyl)-piperidin-2-one] cannot be ordered by pIC50: greater than 6.70 for the first, greater than 6.70 for the second.

Compared with `CC(=O)N(C)CCN(C)c1cncc(Oc2ccc(Cn3nc(-c4cc(F)cc(F)c4)ccc3=O)cc2)n1` [Compound 127, N-{2-[(6-{4-[3-(3,5-Difluoro-phenyl)-6-oxo-6H-pyridazin-1-ylmethyl]-phenoxy}-pyrazin-2-yl)-methyl-amino]-ethyl}-N-methyl-acetamide], `CC(=O)N(C)CCN(C)c1cncc(Oc2ccc(-c3c(F)c(F)nc(F)c3F)cc2)n1` [Compound 236, N-Methyl-N-[2-(methyl-{6-[4-(2,3,5,6-tetrafluoro-pyridin-4-yl)-phenoxy]-pyrazin-2-yl}-amino)-ethyl]-acetamide] is higher in pIC50: 5.00 to 6.00 for the first, greater than 6.70 for the second. The second is the more potent here.

`CC(=O)N(C)CCN(C)c1cncc(Oc2ccc(-c3ccncc3C#N)cc2F)n1` [Compound 228, N-[2-({6-[4-(3-Cyano-pyridin-4-yl)-2-fluoro-phenoxy]-pyrazin-2-yl}-methyl-amino)-ethyl]-N-methyl-acetamide] and `CC(=O)N(C)CCCc1cncc(Oc2ccc(-c3ccncc3C#N)cc2F)n1` [Compound 266, N-(3-{6-[4-(3-Cyano-pyridin-4-yl)-2-fluoro-phenoxy]-pyrazin-2-yl}-propyl)-N-methyl-acetamide] cannot be ordered by pIC50: greater than 6.70 for the first, greater than 6.70 for the second.

First: COc1ccc(Oc2cncc(N3CCCC(CNC(=O)OC(C)(C)C)C3)n2)cc1 (centres unmarked) [Compound 40, {1-[6-(4-Methoxy-phenoxy)-pyrazin-2-yl]-piperidin-3-ylmethyl}-carbamic acid tert-butyl ester]
Second: CC(=O)N(C)CCNc1cncc(Oc2ccc(-c3ccc(C)cn3)cc2)n1 [Compound 19, N-Methyl-N-(2-{6-[4-(5-methyl-pyridin-2-yl)-phenoxy]-pyrazin-2-ylamino}-ethyl)-acetamide]
The pIC50 of the first is lower: 5.00 to 6.00 for the first, greater than 6.70 for the second. The second is the more potent here.

`CC(=O)N(C)CCNc1cncc(Oc2ccc(-c3cccnc3)c(F)c2F)n1` [Compound 302, N-{2-[6-(2,3-Difluoro-4-pyridin-3-yl-phenoxy)-pyrazin-2-ylamino]-ethyl}-N-methyl-acetamide] and `CC(=O)Nc1cccc(-c2ccc(Oc3cncc(NCCN(C)C(C)=O)n3)c(F)c2)n1` [Compound 259, N-(2-{6-[4-(6-Acetylamino-pyridin-2-yl)-2-fluoro-phenoxy]-pyrazin-2-ylamino}-ethyl)-N-methyl-acetamide] fall in the same range of pIC50: 5.00 to 6.00 for the first, 5.00 to 6.00 for the second.

Compared with `CC(=O)N(C)CCCc1cncc(Oc2ccc(-c3ccc(N)cn3)cc2F)n1` [Compound 282, N-(3-{6-[4-(5-Amino-pyridin-2-yl)-2-fluoro-phenoxy]-pyrazin-2-yl}-propyl)-N-methyl-acetamide], `CC(=O)Nc1ccc(-c2ccc(Oc3cncc(CCCN(C)C(C)=O)n3)cc2)cn1` [Compound 219, N-(3-{6-[4-(6-Acetylamino-pyridin-3-yl)-phenoxy]-pyrazin-2-yl}-propyl)-N-methyl-acetamide] is lower in pIC50: greater than 6.70 for the first, 6.00 to 6.70 for the second. The first is the more potent here.

`CC(=O)N(C)CCN(C)c1cncc(Oc2ccc(F)cc2)c1` [Compound 310, N-(2-{[5-(4-Fluoro-phenoxy)-pyridin-3-yl]-methyl-amino}-ethyl)-N-methyl-acetamide] and `CCc1ccc(C2=NN(C(=O)c3ccc(Oc4cncc(N(C)CCN(C)C(C)=O)n4)cc3)CCC2)cc1` [Compound 148, N-{2-[(6-{4-[3-(4-Ethyl-phenyl)-5,6-dihydro-4H-pyridazine-1-carbonyl]-phenoxy}-pyrazin-2-yl)-methyl-amino]-ethyl}-N-methyl-acetamide] fall in the same range of pIC50: 5.00 to 6.00 for the first, 5.00 to 6.00 for the second.

Compared with `O=C1CCCCN1CCNc1cncc(Oc2ccc(-c3ccc(N4CCOCC4)nc3)cc2)n1` [Compound 295, 1-(2-{6-[4-(6-Morpholin-4-yl-pyridin-3-yl)-phenoxy]-pyrazin-2-ylamino}-ethyl)-piperidin-2-one], `CC(=O)N(C)CCCc1cc(Oc2ccc(-c3cccc(N4CCN(C)CC4)n3)cc2)c[n+]([O-])c1` [Compound 314, N-Methyl-N-[3-(5-{4-[6-(4-methyl-piperazin-1-yl)-pyridin-2-yl]-phenoxy}-1-oxy-pyridin-3-yl)-propyl]-acetamide] is lower in pIC50: greater than 6.70 for the first, 5.00 to 6.00 for the second. The first is the more potent here.
